# Experimental data as given in patent US20220079915A1, “IMMUNOSUPPRESSIVE PHARMACEUTICAL COMPOSITION AND APPLICATION THEREOF” (Shanghai Archeus Biotech Co., Ltd., priority 2018, published 2022).
# Tests used:
# [1] = tested on: mouse spleen Naïve CD4+ T cells; test: Compound cytotoxicity detection, lactate dehydrogenase (LDH) release; type: cell-based; conditions: 4 hours incubation; FIG. 9
# Experimental: 1) Separated fresh spleens from adult C57BL/6 female mice (8-12 weeks old), and ground and filtered through a […] nylon cell strainer to obtain a single cell suspension in pre-cooled PBS; 2) Seeded primary CD4+ T cells in 96-well plate with a density of 1×10^5/90 μL. The medium was 1640 medium (serum-free); 3) Added the serially diluted compounds formulated in a volume of 10 μL to designated wells; 4) Incubated the cells for 4 hours at 37 degrees Celsius and 5% CO2; 5) Detected lactate dehydrogenase (LDH) release according to CytoTox-one Homogeneous Membrane Integrity Assay Kit instructions.
# [2] = tested on: THP-1 cells; test: THP-1 cell viability assay (MTT); type: cell-based, human; conditions: groups with or without the compound; FIG. 3
# Experimental: 1) Recoveried and expanded THP-1 cells in a T75 culture flask. The growth medium was 10 milliliters of 10% fetal bovine serun/RPMI1640 (already containing 2 mM glutamine)/1% double antibiotics in each flask. […]
# [3] = tested on: IL-17A; test: IL-17A secretion of mouse spleen Naïve CD4+ T cells induced to differentiate to Th17 cells by cytokines, ELISA; type: cell-based
# Experimental: 1) Pre-coated the 96-well plate with 2 μg/mL anti-mouse CD3e and incubated overnight at 4 degrees Celsius: 2) Separated fresh spleens from adult C57BL/6 female mice (8-12 weeks old), ground and filtered through a […] nylon cell strainer to obtain a single cell suspension in pre-cooled DPBS; 3) Washed the spleen cells again with DPBS, and resuspended in RoboSep™ buffer at a density of 1×10^8/mL; 4) Separated primary CD4+ T cells with mouse primary CD4+ T cell isolation kit as required by the kit; 5) Resuspended the isolated CD4+ T cells in complete medium (RPMI 1640 medium+10% inactivated FBS+1% double antibiotics) at a density of 1×10^6/mL; 6) Washed the 96-well plate pre-coated with anti-mouse CD3e twice with DPBS, added 50 μL of cytokine cocktail, the composition and final concentration of which are shown in Table 6 below, and then added 50 μL of compound solution (the final concentration of DMSO was 0.1%). Added 100 μL of cell suspension to each well to allow the final cell number per well to be 1×10^5/100 μL; [table] 7) Cultured the cells for 7 days under the above conditions. The culture conditions were 37 degrees Celsius, 5% CO2 concentration; 8) After 7 days, added 1× stimulation cocktail (eBioscience 500X) to the culture medium for 4 hours, and then collected cell culture supernatant for detection with IL-17A enzyme-linked immunoassay kit; 9) Completed the detection of supernatant IL-17A concentration with mouse IL-17 DuoSet ELISA kit; 10) Read the OD450 nm absorbance value with a microplate reader, and generated the standard curve by using the 4-parameter logistic fitting (4-PL) method. 1) Diluted the capture antibody (provided in the kit) to a working concentration in PBS without carrier protein, that is, a 96-well plate can be coated with 100 microliters per well. Sealed and incubated the plate overnight at room temperature; 2) Aspirated the coating buffer of the well plate, and eluted with 400 microliters of eluent (provided in the kit) for three times, aspirating as much liquid as possible each time; 3) Added 300 microliters of diluent (provided in the kit) to each well, and equilibrated for 1 hour at room temperature; 4) Eluted the well plate as in the above step 2) to be ready for the addition of sample; ) Added 100 microliters of sample or standard to each well containing the added diluent, and sealed and incubated the well plate for 2 hours at room temperature; 6) Eluted the well plate as in the above step 2); 7) Added 100 microliters of detector antibody (provided in the kit) to each well, and sealed and incubated the well plate for 2 hours at room temperature. 8) Eluted the well plate as in the above step 2); 9) Added 100 microliters of Streptavidin-HRP working solution (provided in the kit) to each well, and sealed and incubated the well plate in dark for 20 minutes at room temperature. 10) Eluted the well plate as in the above step 2); 11) Added 100 microliters of reaction substrate solution (provided in the kit) to each well, and incubated at room temperature for 20 minutes, protected from light: 12) Added 50 microliters of stop solution (provided in the kit) to each well, and tapped the well plate to ensure that the liquid is evenly mixed; 13) Detected the optical density value of each well at […]. The values could be corrected by deducting the values at 540 nm or 570 nm.
compound,measurement,setting,value
C=C[C@@]1(C)CC(=O)C2(O)[C@@]3(C)C(O)CCC(C)(C)C3[C@H](OC(=O)CCN(C)C)[C@H](OC(C)=O)[C@@]2(C)O1.Cl (stereo partly shown) [6-[3-(dimethylamino)propionyl]forskolin hydrochloride],toxicity to CD4+ T cells (lactate dehydrogenase release),[1],not significantly toxic
same,cell viability,[2],no significant difference
same,"IL-17A level, % of the positive control",[3]; 0.5 μM alone,88%
same,reduction in IL-17A levels,[3]; 0.5 μM used alone,12%
same,"IL-17A level, % of the positive control",[3]; 1 μM alone,19%
same,"IL-17A, % of the basic level","[3]; 1 μM compound alone, FIG. 10",18%
same,inhibition at 10 µM,"[3]; Mus musculus, CD4+ T, 168 h, 10 μM, 7 days cytokine induction, FIG. 8, read-out: inhibition of the positive control IL-17A level",~97%
same,inhibition at 1 µM,"[3]; Mus musculus, CD4+ T, 1 μM alone, FIG. 10, read-out: reduction in IL-17A levels (inhibitory effect)",81%
same,"IL-17A treatment value, A","[3]; Table 7, relative to control, 0.5 μM",88%
same,"IL17-A treatment value, A","[3]; Table 8, relative to control, 0.5 μM",88%
